Patent publication US20060241082A1, “Modulating vesicular monoamine transporter trafficking and function: a novel approach for the treatment of parkinson's disease” (priority 2002, published 2006)

Columns and labels:
[1] = Striatal tissue DA content of treated rats (HPLC); type: in vivo, rat; settings: rats
Procedure: On the day of the assay, frozen tissue samples were thawed, sonicated for 3-5 s in tissue buffer (0.05 M sodium phosphate/0.03 M citric acid buffer with 15% methanol (v/v); pH 2.78), and centrifuged for 15 min at 22,000×g. Tissue pellets were retained and protein determined according to the method of Lowry et al. (1951). The supernatant was centrifuged a second time for 15 min at 22,000×g. 20 μl of supernatant were injected onto a high performance liquid chromatograph system coupled to an electrochemical detector (+0.73 V) for separation and quantitation of dopamine levels using the method of Chapin et al. (1986).

VMAT-2 [2] = test: VMAT-2 immunoreactivity in striatal subcellular fractions of treated mice (Western blot); type: in vivo, mouse; settings: methamphetamine 4 x 10 mg/kg s.c., 1 h
Procedure: Fresh striatal tissue was homogenized in ice-cold 0.32 M sucrose and centrifuged (800×g for 12 min: 4° C.).
VMAT-2 antibody was kindly donated by Dr. John Haycock at the Louisiana State University, New Orleans, La. (Antibody can be purchased from Chemicon, Temecula, Calif. and the reagent # is AB1767). Binding of VMAT-2 antibody was performed using 60 μl of whole synaptosomal, plasmalemmal membrane or vesicle subcellular fractions. Samples were added to 20 μl of loading buffer (final concentration: 2.25% SDS, 18% glycerol, 180 mM Tris Base (pH 6.8), 10% β-mercaptoethanol and bromophenol blue). Approximately 60 μg P2, 40 μg protein P3, and 20 μg protein S3 were loaded per well in a 10% SDS-polyacrylamide gel. Following electrophoresis, samples were transferred to polyvinylidene difluoride hybridization transfer membrane (New England Nuclear (NEN), Boston, Mass.). All subsequent incubation steps were performed at room temperature while shaking. Each membrane was first blocked for 2 h in 100 ml of Tris buffer saline with tween (TBST; 250 mM NaCl, 50 mM tris pH 7.4 and 0.05% tween 20) containing 5% nonfat dry milk. Each membrane was then incubated with anti-VMAT-2 antibody (1:4000 dilution) in 13 ml of TBST with 5% milk for 1 h and then washed 5 times (2×1 min wash: 3×5 min wash) in 70 ml TBST with 5% milk. The membranes then were incubated for 1 h with the goat F (ab′)2 anti-rabbit immunoglobulin antibody (Biosource International, Camarillo, Calif.) at a 1:2000 dilution in TBST with 5% milk. This secondary antibody had been affinity-isolated, preabsorbed with human immunoglobulin, and conjugated with horseradish peroxidase. The membranes were then washed 5 times (2×1 min wash: 3×5 min) with 70 ml TBST, and then developed with Renaissance Western Blot Chemiluminescence's Reagent Pus (NEN, Boston, Mass.), according to manufacturer specification. […] Bands on blots were quantified by densitometry measuring net intensity (the sum of the background-subtracted pixel values in the band area) using Kodak 1D image-analysis software.

VMAT-2 [3] = target: VMAT-2 (Mus musculus, UniProt Q8BRU6); test: [3H]DHTBZ binding in striatal vesicles prepared from treated mice; settings: methamphetamine 4 x 10 mg/kg s.c., 2-h intervals, 1 and 24 h after treatment
Chain of VMAT-2 (Mus musculus, UniProt Q8BRU6) (Q8BRU6 whole entry): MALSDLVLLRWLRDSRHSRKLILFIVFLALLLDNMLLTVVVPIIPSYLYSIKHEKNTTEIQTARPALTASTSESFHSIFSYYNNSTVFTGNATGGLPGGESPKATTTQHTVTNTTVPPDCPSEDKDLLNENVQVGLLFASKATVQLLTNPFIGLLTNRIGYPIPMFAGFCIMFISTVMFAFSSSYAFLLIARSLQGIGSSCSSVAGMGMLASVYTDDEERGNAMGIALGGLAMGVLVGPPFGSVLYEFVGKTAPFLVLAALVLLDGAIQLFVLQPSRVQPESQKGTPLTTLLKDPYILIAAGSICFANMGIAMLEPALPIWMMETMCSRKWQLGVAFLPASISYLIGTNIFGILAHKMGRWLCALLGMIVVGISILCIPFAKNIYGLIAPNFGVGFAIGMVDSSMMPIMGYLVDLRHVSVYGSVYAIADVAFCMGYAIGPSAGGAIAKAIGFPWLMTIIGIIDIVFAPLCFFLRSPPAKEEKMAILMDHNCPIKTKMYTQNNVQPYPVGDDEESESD
Procedure: Binding of [^3H]DHTBZ was performed essentially as described by Brown et al. (2001a and 2001b) Briefly, 200 μl of the synaptic vesicles preparation (˜6 μg of protein) was incubated in wash buffer in the presence of [^3H]DHTBZ (2 nM final concentration) for 10 min at 25° C. The reaction was terminated by addition of 1 ml cold wash buffer and rapid filtration through Whatman GF/P filters soaked in 0.5% polyethylenimine. Filters were washed three times with ice-cold wash buffer. Nonspecific binding was determined by co incubation with 20 μM TBZ. All protein concentrations were determined by Bio-Rad protein assay (Bio-Rad Inc.)

VMAT-2 [4] = target: T1, VMAT-2 (Rattus norvegicus, UniProt Q01827); parameters: purified striatal vesicles prepared from treated rats; from tissue; host or cells: striatum of male Sprague-Dawley rats (synaptic vesicles; P2, P3, S3 fractions); settings: rats, multiple METH; Brown et al., 2000; cited from earlier work
T1 sequence (Q01827 whole entry): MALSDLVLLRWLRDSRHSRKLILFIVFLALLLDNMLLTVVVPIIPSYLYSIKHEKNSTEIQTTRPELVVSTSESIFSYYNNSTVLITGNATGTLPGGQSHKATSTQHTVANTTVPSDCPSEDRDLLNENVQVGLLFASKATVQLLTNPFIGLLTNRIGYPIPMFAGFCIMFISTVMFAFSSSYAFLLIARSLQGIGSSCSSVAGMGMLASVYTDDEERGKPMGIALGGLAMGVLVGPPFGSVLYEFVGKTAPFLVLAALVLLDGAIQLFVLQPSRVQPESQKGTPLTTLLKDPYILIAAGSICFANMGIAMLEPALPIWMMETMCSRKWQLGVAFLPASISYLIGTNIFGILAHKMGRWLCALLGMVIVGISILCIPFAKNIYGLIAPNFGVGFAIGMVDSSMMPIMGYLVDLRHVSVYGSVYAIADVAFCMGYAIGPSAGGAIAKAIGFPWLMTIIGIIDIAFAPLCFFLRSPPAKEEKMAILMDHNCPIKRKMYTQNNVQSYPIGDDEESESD

[5] = target: T2, plasmalemmal DA transporter (DAT) (Rattus norvegicus, UniProt P23977); settings: rats, cited from earlier work
T2 construct: Uptake of [^3H]DA was determined in striatal synaptosomes; from tissue; host or cells: striatum of male Sprague-Dawley rats (synaptosomes, P2)
T2 sequence (P23977 whole entry): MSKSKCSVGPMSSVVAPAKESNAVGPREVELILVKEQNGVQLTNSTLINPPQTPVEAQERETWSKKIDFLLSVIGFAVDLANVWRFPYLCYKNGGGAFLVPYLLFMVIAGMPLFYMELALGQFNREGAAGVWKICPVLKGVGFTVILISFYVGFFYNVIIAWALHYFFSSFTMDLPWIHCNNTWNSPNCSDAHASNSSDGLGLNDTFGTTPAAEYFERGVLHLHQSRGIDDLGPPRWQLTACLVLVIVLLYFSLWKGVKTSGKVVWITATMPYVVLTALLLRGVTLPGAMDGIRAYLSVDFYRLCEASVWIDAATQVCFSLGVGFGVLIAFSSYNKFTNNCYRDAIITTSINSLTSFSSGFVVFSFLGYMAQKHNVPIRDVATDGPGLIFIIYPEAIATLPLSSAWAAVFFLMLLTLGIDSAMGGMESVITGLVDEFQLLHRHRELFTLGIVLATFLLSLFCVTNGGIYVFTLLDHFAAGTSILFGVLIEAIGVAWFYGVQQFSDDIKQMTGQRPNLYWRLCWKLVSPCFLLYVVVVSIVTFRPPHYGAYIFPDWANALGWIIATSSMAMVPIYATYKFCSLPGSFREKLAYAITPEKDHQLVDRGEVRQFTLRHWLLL

VMAT-2 [6] = target: T1, VMAT-2; test: Direct in vitro application of MPD to vesicular [3H]DA uptake; type: biochemical; parameters: purified striatal vesicles prepared from treated rats; from tissue; host or cells: striatum of male Sprague-Dawley rats (synaptic vesicles; P2, P3, S3 fractions)
[7] = Locomotor activity and rearing of treated rats; type: in vivo, rat; settings: MPD 5-40 mg/kg s.c.

Structure (SMILES)	striatal DA levels 7 d after treatment ([1]; METH 4 x 7.5 mg/kg s.c., 2-h intervals, vs saline/saline)	decrease in whole tissue DA content ([1]; multiple METH, 6 h after drug treatment)	VMAT-2 immunoreactivity in the membrane-associated fraction (VMAT-2 [2])	VMAT-2 immunoreactivity in the vesicle preparation (VMAT-2 [2])	total VMAT-2 immunoreactivity in synaptosomes (VMAT-2 [2])	[3H]DHTBZ binding (VMAT-2 [3])	deficit in vesicular DA uptake (VMAT-2 [4])	magnitude of the decrease in plasmalemmal DA uptake ([5]; METH 4 x 10 mg/kg s.c., 2-h intervals, 1 h, Kokoshka 1998, Fleckenstein 1999, Metzger 2000)	recovery of plasmalemmal DA uptake after 24 h ([5]; multiple METH, Kokoshka et al., 1998)	total tissue DA concentrations ([1]; 3 injections of MPD 5 mg/kg s.c., 1 h after the last MPD injection)	total DA levels 7 d after MPD per se ([1]; MPD 5 mg/kg s.c.)	effect of post-treatment with a single MPD injection on the 7-d striatal DA depletions caused by METH ([1]; MPD 5 mg/kg s.c. 1 h after the last METH (4 x 7.5 mg/kg s.c.))	effect of two or three MPD injections on the persistent METH-induced striatal DA depletions ([1]; MPD 5 mg/kg s.c. at 1 and 3 h, or 1, 3 and 5 h after the last METH)	IC50 (VMAT-2 [6]; in vitro direct application, n=3)	vesicular [3H]DA uptake on direct application of MPD (VMAT-2 [6]; in vitro, concentrations of 1 nM to 1 μM)	locomotor activity and rearing as compared with controls [7]
CN[C@@H](C)Cc1ccccc1 (racemic) [METH, methamphetamine]	decreased	60%	increasing	decreased	little effect	rapidly decreased	≈ 65%	70-80%	≈ 60 % of control values	–	–	–	–	–	–	–
COC(=O)C(c1ccccc1)C1CCCCN1 (stereo not shown) [MPD, methylphenidate]	–	–	–	–	–	–	–	–	–	without altering	did not alter	partially reversed	completely prevented	19.8 ± 4 µM	without effect	increased
